Experiments:
RIN-m cells = experiment: Cell viability (CellTiter Blue), compound alone without IAPP; type: cell-based, Rat; conditions: concentrations used for cell viability assays, no IAPP
Description: For cell toxicity assays, Rat insulinoma cells (RIN-m) were as they are considered to be a good model for pancreatic β-cells (see Huang, C.; Lin, C.; Haataja, L., Gurlo, T., Butler, A. E., Rizza, R. A., and Butler, P. C. Diabetes, 2007, 56, 2016-2027). Rat insulinoma RIN-m cells (ATCC, Manassas, Va.) were cultured in RPMI medium supplemented with 10% fetal bovine serum, 1% penicillin/streptomycin, […] sodium pyruvate, and […] β-mercaptoethanol (Life Technologies, Carlsbad, Calif.) at 37° C. and 5% CO2. Upon reaching ˜95% confluence, cells were washed with phosphate buffered saline (VWR, Radnor, Pa.), split using 0.25% Trypsin-EDTA (Life Technologies), and plated in clear 96-well plates (Corning, Glenview, Ill.) for cell viability assays.
Cell viability was measured using the CellTiter Blue (CTB, Promega, Madison, Wis.) fluorescence-based assay. Cells were plated at a density of 20,000 cells per well in 96 well plates. After 48 h of incubation at 37° C. and 5% CO2, cells were washed with 100 μL of PBS. […] Fluorescence of the dye was measured on a FlexStation3 microplate reader (Molecular Devices, Sunnyvale, Calif.). […] Percent viability was calculated as per the following equation: % Viability=100*[(<S>−<P>)/(<N>−<P>)]
Where <S>, <P>, and <N> are the average fluorescence intensities of the sample, positive control, and negative control, respectively.

Partition coefficient = type: physicochemical

**Q.** For CCOC(=O)c1cc(NC(=O)c2cc(NC(=O)c3cc([N+](=O)[O-])cn3CC(C)C)cn2CC(C)C)cn1CCC(=O)O [ADH-101], which “toxicity to the cells” value (RIN-m cells) is on record?
**A.** not toxic

**Q.** What about the logP (Partition coefficient) of the same compound?
**A.** 2.2

Source: patent US11124479B2, “Oligopyrroles as antagonists of islet amyloid polypeptide oligomerization” (New York University, priority 2017, dated 2021)
